This test has as its target T1, AGO2-MID (Homo sapiens, UniProt Q9UKV8).
T1 construct: MID domain, residues 432-578; expressed in E. coli BL21(DE3)pLysS as His6-SUMO-TEV fusion (pCold I), His6-SUMO cleaved with proTEV
Kind of test: isothermal titration calorimetry. The test is classed as binding. The conditions noted are these: read-out: Ka (× 10^3 M^-1) (converted). The text has this: isothermal titration calorimetry on AGO2-MID
Background: ITC needs no label: the signal is the heat of the interaction.
T1 sequence (Q9UKV8 432-578): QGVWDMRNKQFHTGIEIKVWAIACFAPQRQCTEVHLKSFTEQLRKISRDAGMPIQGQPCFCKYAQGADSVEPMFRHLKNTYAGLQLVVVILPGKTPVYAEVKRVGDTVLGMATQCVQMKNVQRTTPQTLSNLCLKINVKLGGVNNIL
For the molecule `Nc1ncnc2c1ncn2CC(=O)N[C@H](CO)COP(=O)(O)OC[C@H](COP(=O)(O)O)NC(=O)Cn1cnc2c(N)ncnc21` [p-sAsA], the Kd was 169 µM.
As for `Nc1ncnc2c1ncn2[C@@H]1O[C@H](COP(=O)(O)O)[C@@H](O)[C@H]1O` [AMP], the figure is 169 µM; as for `Nc1ncnc2c1ncn2CC(=O)N[C@@H](COP(=O)(O)O)COP(=O)(O)OC[C@H]1O[C@@H](n2cnc3c(N)ncnc32)[C@H](O)[C@@H]1O` [p-sArA], 139 µM.
As for `Nc1ncnc2c1ncn2[C@@H]1O[C@H](COP(=O)(O)O[C@H]2[C@@H](O)[C@H](n3cnc4c(N)ncnc43)O[C@@H]2COP(=O)(O)O)[C@@H](O)[C@H]1O` [p-rArA], the figure is 4.35 µM.

The record behind these values is PMC7432901, “Investigation of Strand-Selective Interaction of SNA-Modified siRNA with AGO2-MID” (International Journal of Molecular Sciences, 2020).
